Experimental data published in US8802895B2, “Amide derivatives of benzene-sulfonanilide, pharmaceutical composition thereof and method for cancer treatment using the same” (Cleveland State University, priority 2010, dated 2014).

How the values were obtained:
Type in all cases: cell-based
MDA-MB-231/ATCC = experiment: NCIDTP 60 cancer cell lines screening, Breast Cancer panel
UACC-62 = experiment: NCIDTP 60 cancer cell lines screening, Melanoma panel
HS 578T = experiment: NCIDTP 60 cancer cell lines screening, Breast Cancer panel
NCI-H226 = experiment: NCIDTP 60 cancer cell lines screening, Non-Small Cell Lung Cancer panel
SK-MEL-28 = experiment: NCIDTP 60 cancer cell lines screening, Melanoma panel
HCT-116 = experiment: NCIDTP 60 cancer cell lines screening, Colon Cancer panel
UO-31 = experiment: NCIDTP 60 cancer cell lines screening, Renal Cancer panel
NCI-H322M = experiment: NCIDTP 60 cancer cell lines screening, Non-Small Cell Lung Cancer panel
SNB-75 = experiment: NCIDTP 60 cancer cell lines screening, CNS Cancer panel
COLO 205 = experiment: NCIDTP 60 cancer cell lines screening, Colon Cancer panel

Cc1ccc(C)c(COc2cc(NC(=O)c3ccc4c(c3)OCO4)ccc2N(C)S(C)(=O)=O)c1 [Compound #10, Benzo[1,3]dioxole-5-carboxylic acid [3-(2,5-dimethyl-benzyloxy)-4-(methanesulfonyl-methyl-amino)-phenyl]-amide]
CC50 (MDA-MB-231/ATCC; Homo sapiens, MDA-MB-231, read-out: LC50): > 100000 nM | GI50 (MDA-MB-231/ATCC; Homo sapiens, MDA-MB-231/ATCC): 256 nM | TGI (MDA-MB-231/ATCC; MDA-MB-231/ATCC): 9.26E−7 Molar | Percent Growth (MDA-MB-231/ATCC; MDA-MB-231/ATCC, Log10 Concentration −4.0 Molar): −7% | Percent Growth (MDA-MB-231/ATCC; MDA-MB-231/ATCC, Log10 Concentration −5.0 Molar): −17% | Percent Growth (MDA-MB-231/ATCC; MDA-MB-231/ATCC, Log10 Concentration −6.0 Molar): −3% | Percent Growth (MDA-MB-231/ATCC; MDA-MB-231/ATCC, Log10 Concentration −7.0 Molar): 87% | Percent Growth (MDA-MB-231/ATCC; MDA-MB-231/ATCC, Log10 Concentration −8.0 Molar): 90% | GI50 (UACC-62; Homo sapiens, UACC-62): 414 nM | CC50 (UACC-62; Homo sapiens, UACC-62, read-out: LC50): > 100000 nM | TGI (UACC-62; UACC-62): >1.00E−4 Molar | Percent Growth (UACC-62; UACC-62, Log10 Concentration −4.0 Molar): 14% | Percent Growth (UACC-62; UACC-62, Log10 Concentration −5.0 Molar): 15% | Percent Growth (UACC-62; UACC-62, Log10 Concentration −6.0 Molar): 37% | Percent Growth (UACC-62; UACC-62, Log10 Concentration −7.0 Molar): 71% | Percent Growth (UACC-62; UACC-62, Log10 Concentration −8.0 Molar): 94% | Percent Growth (HS 578T; HS 578T, Log10 Concentration −4.0 Molar): 3% | Percent Growth (HS 578T; HS 578T, Log10 Concentration −5.0 Molar): −9% | Percent Growth (HS 578T; HS 578T, Log10 Concentration −6.0 Molar): −5% | Percent Growth (HS 578T; HS 578T, Log10 Concentration −7.0 Molar): 47% | Percent Growth (HS 578T; HS 578T, Log10 Concentration −8.0 Molar): 90% | CC50 (HS 578T; Homo sapiens, Hs-578T, read-out: LC50): > 100000 nM | GI50 (HS 578T; Homo sapiens, HS 578T): 87 nM | GI50 (NCI-H226; Homo sapiens, NCI-H226): 686 nM | CC50 (NCI-H226; Homo sapiens, NCI-H226, read-out: LC50): > 100000 nM | TGI (NCI-H226; NCI-H226): >1.00E−4 Molar | Percent Growth (NCI-H226; NCI-H226, Log10 Concentration −4.0 Molar): 16% | Percent Growth (NCI-H226; NCI-H226, Log10 Concentration −5.0 Molar): 20% | Percent Growth (NCI-H226; NCI-H226, Log10 Concentration −6.0 Molar): 42% | Percent Growth (NCI-H226; NCI-H226, Log10 Concentration −7.0 Molar): 93% | Percent Growth (NCI-H226; NCI-H226, Log10 Concentration −8.0 Molar): 87% | GI50 (SK-MEL-28; Homo sapiens, SK-MEL-28): 692 nM | CC50 (SK-MEL-28; Homo sapiens, SK-MEL-28, read-out: LC50): > 100000 nM | TGI (SK-MEL-28; SK-MEL-28): >1.00E−4 Molar | Percent Growth (SK-MEL-28; SK-MEL-28, Log10 Concentration −4.0 Molar): 50% | Percent Growth (SK-MEL-28; SK-MEL-28, Log10 Concentration −5.0 Molar): 49% | Percent Growth (SK-MEL-28; SK-MEL-28, Log10 Concentration −6.0 Molar): 44% | Percent Growth (SK-MEL-28; SK-MEL-28, Log10 Concentration −7.0 Molar): 83% | Percent Growth (SK-MEL-28; SK-MEL-28, Log10 Concentration −8.0 Molar): 91% | TGI (HCT-116; HCT-116): 1.02E−6 Molar | Percent Growth (HCT-116; HCT-116, Log10 Concentration −4.0 Molar): −47% | Percent Growth (HCT-116; HCT-116, Log10 Concentration −5.0 Molar): −47% | Percent Growth (HCT-116; HCT-116, Log10 Concentration −7.0 Molar): 45% | Percent Growth (HCT-116; HCT-116, Log10 Concentration −8.0 Molar): 89% | GI50 (HCT-116; Homo sapiens, HCT-116): 75.3 nM | CC50 (HCT-116; Homo sapiens, HCT-116, read-out: LC50): > 100000 nM | GI50 (UO-31; Homo sapiens, UO-31): 395 nM | CC50 (UO-31; Homo sapiens, UO-31, read-out: LC50): > 100000 nM | TGI (UO-31; UO-31): >1.00E−4 Molar | Percent Growth (UO-31; UO-31, Log10 Concentration −4.0 Molar): 14% | Percent Growth (UO-31; UO-31, Log10 Concentration −5.0 Molar): 12% | Percent Growth (UO-31; UO-31, Log10 Concentration −6.0 Molar): 35% | Percent Growth (UO-31; UO-31, Log10 Concentration −7.0 Molar): 73% | Percent Growth (UO-31; UO-31, Log10 Concentration −8.0 Molar): 78% | TGI (NCI-H322M): >1.00E−4 Molar | GI50 (NCI-H322M; Homo sapiens): 468 nM | CC50 (NCI-H322M; Homo sapiens, read-out: LC50): > 100000 nM | Percent Growth (NCI-H322M; Log10 Concentration −4.0 Molar): 28% | Percent Growth (NCI-H322M; Log10 Concentration −5.0 Molar): 26% | Percent Growth (NCI-H322M; Log10 Concentration −6.0 Molar): 30% | Percent Growth (NCI-H322M; Log10 Concentration −7.0 Molar): 91% | Percent Growth (NCI-H322M; Log10 Concentration −8.0 Molar): 94% | GI50 (SNB-75; Homo sapiens, SNB-75): 266 nM | CC50 (SNB-75; Homo sapiens, SNB-75, read-out: LC50): > 100000 nM | Percent Growth (SNB-75; SNB-75, Log10 Concentration −4.0 Molar): 3% | Percent Growth (SNB-75; SNB-75, Log10 Concentration −5.0 Molar): −6% | Percent Growth (SNB-75; SNB-75, Log10 Concentration −6.0 Molar): −5% | Percent Growth (SNB-75; SNB-75, Log10 Concentration −7.0 Molar): 91% | Percent Growth (SNB-75; SNB-75, Log10 Concentration −8.0 Molar): 86% | TGI (COLO 205; COLO 205): 1.07E−6 Molar | Percent Growth (COLO 205; COLO 205, Log10 Concentration −4.0 Molar): −33% | Percent Growth (COLO 205; COLO 205, Log10 Concentration −5.0 Molar): −41% | Percent Growth (COLO 205; COLO 205, Log10 Concentration −6.0 Molar): 1% | Percent Growth (COLO 205; COLO 205, Log10 Concentration −7.0 Molar): 99% | Percent Growth (COLO 205; COLO 205, Log10 Concentration −8.0 Molar): 105% | GI50 (COLO 205; Homo sapiens, COLO 205): 318 nM | CC50 (COLO 205; Homo sapiens, COLO 205, read-out: LC50): > 100000 nM
